Test system: 3T3-L1 Mouse Adipocytes
Test: Free fatty acid levels in cultured 3T3-L1 mouse adipocytes (isoproterenol stimulated)
Format: cell-based
Conditions: free fatty acid in medium; 5 μM peptide, 20-22 h pre-incubation then 3 h with 0.1 nM isoproterenol; isoproterenol alone = 100%
Protocol: The effect of the peptides on fatty acid metabolism can be assessed using an assay to monitor free fatty acid levels produced by cultured cells such as mouse adipocytes. Peptide arrays were initially prepared as 5 mM stock in DMSO and diluted to 0.5 mM in H2O; peptides were used at a final concentration of 5 μM (0.1% DMSO). Calculations for peptide concentrations based on approximate molecular weight of 2000 Daltons. […] Mouse 3T3-L1 cells purchased from ZenBio (Research Triangle Park, NC) were seeded at 3,000 cells per well in 96-well plates in Pre-adipocyte Medium (Zen-Bio) and grown to confluence at 37° C. in a humidified atmosphere of 5% CO2/95% air. Two days after confluence, cells were placed in Adipocyte Differentiation Medium (Zen-Bio) and cultured for three additional days at 37° C. in a humidified atmosphere of 5% CO2/95% air. The culture medium was then replaced with Adipocyte Maintenance Medium (Zen-Bio) and the cells maintained for an additional 9 days at 37° C. in a humidified atmosphere of 5% CO2/95% air with partial medium replacement every other day. Following 12 days of differentiation, medium was replaced Adipocyte Maintenance Medium without insulin and the cultures placed at 37° C. in a humidified atmosphere of 5% CO2/95% air. On day 13 of differentiation, test peptides were added directly to each well (without replacing the medium) at a final concentration of 5 μM in 0.1% DMSO and incubated for 20-22 hours at 37° C. in a humidified atmosphere of 5% CO2/95% air. […] Cells were incubated for 3 hours in Assay Buffer (Zen-Bio) at 37° C. in a humidified atmosphere of 5% CO2/95% air. Following 3 h incubation, conditioned medium from each well was transferred to a fresh 96-well plate. Free fatty acid concentrations in the medium were determined using a Free Fatty Acid Assay kit (Zen-Bio) according to the manufacturer's instructions; absorbance was measured using a Cytation 3 plate reader at 540 nm (BioTek, Winooski, Vt.). Treatment with 0.1 nM isoproterenol alone was used as the free fatty acid level stimulatory control. Absorbance values were expressed as percent control activity relative to 0.1 nM isoproterenol alone treated cells, 100%. The relative standard deviation of the isoproterenol control was <10%. Insulin at 0.25 nM was used as a potent control for decreasing free fatty acid levels. […] Data presented are representative values from 2 independent experiments with each data point performed in triplicate in each independent experiment.

Row | Substance | Percent of Isoproterenol Control Activity [%]
1 | 105 (MPRKCWLYPSRTN) [compound 105] | 91
2 | 196 (LVPFDRGDLEGELTGTGMLACVIL) [compound 196] | 98
3 | 181 (MCHWAGGASNTGDA) [compound 181] | 103
4 | 46 (MHHMKHPIIC) [compound 46] | 98
5 | 206 (SSSMMGEVASC) [compound 206] | 95
6 | 202 (MWVIEEYAKILRSWVWFNPPQLPA) [compound 202] | 93
7 | 207 (VVGSWCWSLSWVVGMR) [compound 207] | 98
8 | 190 (MYHSENSMMDHVTNNATGMNIMEK) [compound 190] | 101
9 | 120 (MSMPVLGWQWG) [compound 120] | 95
10 | 11 (MAVVDGWVNTWVVPKSASPWKN) [compound 11] | 84
11 | 153 (MVSMMTSMGM) [compound 153] | 93
12 | 67 (MLLMWWVSEPHCVVVNM) [compound 67] | 116
13 | 36 (MGLAAVCVCWVGWAGVVLM) [compound 36] | 103
14 | 81 (MMFPIRLHNSPIRP) [compound 81] | 90
15 | 119 (MSLTPHILPTMP) [compound 119] | 97
16 | 65 (MLKPETSSDSPSA) [compound 65] | 99

Test system: H4-IIE Cells
Test: Glucose production in cultured H4-IIE cells
Format: cell-based, rat
Conditions: glucose concentration in medium relative to untreated cells; 5 μM peptide, 24 h
Protocol: The effect of the peptides on glucose homeostasis can be assessed using an assay to monitor glucose production by cultured cells such as rat hepatocytes. Peptide arrays were initially prepared as 5 mM stock in DMSO and diluted to 0.5 mM in H2O; peptides were used at a final concentration of 5 μM (0.1% DMSO). Calculations for peptide concentrations based on approximate molecular weight of 2000 Daltons. H4-IIE rat hepatic cell line was purchased from American Type Culture Collection (Manassas, Va.). H4-IIE cells were seeded in standard medium (DMEM/high glucose+10% Fetal Bovine Serum+antibiotics) at 100,000 cells/well on 96-well plates and allowed to adhere overnight at 37° C. in a humidified atmosphere of 5% CO2/95% air. 24 h after seeding, the medium was removed, cells were rinsed with glucose free DMEM, and the medium replaced with Glucose Production Medium (glucose free DMEM+2 mM sodium pyruvate+10 mM sodium lactate+antibiotics). The cultures were placed at 37° C. in a humidified atmosphere of 5% CO2/95% air overnight. The next morning, the medium was removed and fresh Glucose Production Medium containing compounds was added; 5 uM peptide or 0.5-1 nM insulin as a potent inhibitor of glucose production. Cells were incubated for 24 h at 37° C. in a humidified atmosphere of 5% CO2/95% air. Following 24 h incubation, conditioned medium from each well was transferred to a fresh 96-well plate. Glucose concentrations in the medium were determined using a Glucose Assay kit (Abcam; Cambridge, Mass.) according to the manufacturer's instructions; absorbance measured using a Cytation 3 plate reader at 570 nm (BioTek, Winooski, Vt.). Untreated cells were used as reference for maximal glucose production. Absorbance values were expressed as percent control activity relative to untreated treated cells for 5 μM peptide. The relative standard deviation from plate to plate of untreated control was <25%. […] Glucose levels for 0.5-1 nM insulin treatment were <5% of the untreated control value. Data are presented as representative values from 2-3 independent experiments with each data point performed in triplicate in each independent experiment.

Row | Substance | Percent of Control Activity [%]
17 | 105 (MPRKCWLYPSRTN) [compound 105] | 118
18 | 196 (LVPFDRGDLEGELTGTGMLACVIL) [compound 196] | 116
19 | 181 (MCHWAGGASNTGDA) [compound 181] | 109
20 | 46 (MHHMKHPIIC) [compound 46] | 106
21 | 206 (SSSMMGEVASC) [compound 206] | 106
22 | 202 (MWVIEEYAKILRSWVWFNPPQLPA) [compound 202] | 103
23 | 207 (VVGSWCWSLSWVVGMR) [compound 207] | 103
24 | 190 (MYHSENSMMDHVTNNATGMNIMEK) [compound 190] | 118
25 | 120 (MSMPVLGWQWG) [compound 120] | 118
26 | 11 (MAVVDGWVNTWVVPKSASPWKN) [compound 11] | 76
27 | 153 (MVSMMTSMGM) [compound 153] | 91
28 | 67 (MLLMWWVSEPHCVVVNM) [compound 67] | 107
29 | 36 (MGLAAVCVCWVGWAGVVLM) [compound 36] | 101
30 | 81 (MMFPIRLHNSPIRP) [compound 81] | 115
31 | 119 (MSLTPHILPTMP) [compound 119] | 122
32 | 65 (MLKPETSSDSPSA) [compound 65] | 102

Test system: C2C12 Cells
Test: Glucose utilization in cultured C2C12 cells (myotubes)
Format: cell-based, mouse
Conditions: glucose concentration in medium relative to untreated cells; 5 μM peptide, 22 h
Protocol: The effect of the peptides on glucose homeostasis can be assessed using an assay to monitor glucose utilization by cultured cells such as mouse myotubes. Peptide arrays were initially prepared as 5 mM stock in DMSO and diluted to 0.5 mM in H2O; peptides were used at a final concentration of 5 μM (0.1% DMSO). Calculations for peptide concentrations based on approximate molecular weight of 2000 Daltons. C2C12 mouse muscle cell line was purchased from Millipore Sigma (Saint Louis, Mo.). C2C12 cells were seeded in standard medium (DMEM/low glucose (1 g/L)+10% Fetal Bovine Serum+antibiotics) at 7,500 cells/well on 96-well plates and grown to confluence at 37° C. in a humidified atmosphere of 5% CO2/95% air. Three days after plating the medium was removed and with Differentiation Medium (DMEM/low glucose (1 g/L)+2% Horse Serum+antibiotics) added. The cultures were placed at 37° C. in a humidified atmosphere of 5% CO2/95% air for 5 days with partially replacement of medium daily. After 5 days of differentiation, the medium was removed from myotube cultures and replaced with Assay Medium (DMEM/low glucose (1 g/L)+antibiotics). Culture were placed at 37° C. in a humidified atmosphere of 5% CO2/95% air for 5 h. Following the 5 h incubation the medium was removed and fresh Assay Medium containing compounds was added; 5 μM peptide or 1 mM metformin as a potent stimulator of glucose utilization. Cells were incubated for 22 h at 37° C. in a humidified atmosphere of 5% CO2/95% air. Following 22 h incubation, conditioned medium from each well was transferred to a fresh 96-well plate. Glucose concentrations in the medium were determined using a Glucose Assay kit (Abcam; Cambridge, Mass.) according to the manufacturer's instructions; absorbance measured using a Cytation 3 plate reader at 570 nm (BioTek, Winooski, Vt.). Untreated cells were used as reference for basal glucose utilization. Absorbance values were expressed as percent control activity relative to untreated treated cells for 5 μM peptide. The relative standard deviation from plate to plate of untreated control was <10%. […] Data presented are representative values from 2-3 independent experiments with each data point performed in triplicate in each independent experiment.

Row | Substance | Percent of Control Activity [%]
33 | 105 (MPRKCWLYPSRTN) [compound 105] | 114
34 | 196 (LVPFDRGDLEGELTGTGMLACVIL) [compound 196] | 97
35 | 181 (MCHWAGGASNTGDA) [compound 181] | 107
36 | 46 (MHHMKHPIIC) [compound 46] | 104
37 | 206 (SSSMMGEVASC) [compound 206] | 99
38 | 202 (MWVIEEYAKILRSWVWFNPPQLPA) [compound 202] | 89
39 | 207 (VVGSWCWSLSWVVGMR) [compound 207] | 90
40 | 190 (MYHSENSMMDHVTNNATGMNIMEK) [compound 190] | 107
41 | 120 (MSMPVLGWQWG) [compound 120] | 98
42 | 11 (MAVVDGWVNTWVVPKSASPWKN) [compound 11] | 96
43 | 153 (MVSMMTSMGM) [compound 153] | 104
44 | 67 (MLLMWWVSEPHCVVVNM) [compound 67] | 88
45 | 36 (MGLAAVCVCWVGWAGVVLM) [compound 36] | 106
46 | 81 (MMFPIRLHNSPIRP) [compound 81] | 118
47 | 119 (MSLTPHILPTMP) [compound 119] | 109
48 | 65 (MLKPETSSDSPSA) [compound 65] | 99

— patent US20220332774A1, “THERAPEUTIC MITOCHONDRIAL PEPTIDES” (priority 2019, published 2022)
